US8080549B2, “Endothelin receptor antagonists” (CoNCERT Pharmaceuticals, Inc., priority 2007, dated 2011)
Where two headings read alike, the source gives them in different places.

Key:
[1] = target: T1, CYP3A4 supersomes (Homo sapiens, UniProt P08684); experiment: Metabolic stability in CYP3A4 Supersomes; assay type: in vitro ADME; details: for increase of in vitro t1/2 over non-deuterated bosentan: CYP3A4 supersomes, under the assay conditions tested, approximate values; for % Difference: [(deuterated species) − (nondeuterated species)](100)/(nondeuterated species), of Ave t1/2 vs bosentan
T1 construct: purchased BD Gentest
Experimental: (§1) Materials: CYP3A4 Supersomes™ were obtained from BD Gentest. β-nicotinamide adenine dinucleotide phosphate, reduced form (NADPH), magnesium chloride (MgCl2), and dimethyl sulfoxide (DMSO) were purchased from Sigma-Aldrich.
(§2) Determination of Metabolic Stability: 7.5 mM stock solutions of test compounds were prepared in DMSO. The 7.5 mM stock solutions were diluted to 50 μM in acetonitrile (ACN). The 1000 pmol/mL CYP3A4 supersomes were diluted to 50 pmol/mL in 0.1 M potassium phosphate buffer, pH 7.4, containing 3 mM MgCl2. The diluted supersomes were added to wells of a 96-well deep-well polypropylene plate in triplicate. 10 μL of the 50 μM test compound was added to the supersomes and the mixture was pre-warmed for 10 minutes. Reactions were initiated by addition of pre-warmed NADPH solution. The final reaction volume was 0.5 mL and contained 40 pmol/mL CYP3A4 supersomes, 1 μM test compound, and 2 mM NADPH in 0.1 M potassium phosphate buffer, pH 7.4, and 3 mM MgCl2. The reaction mixtures were incubated at 37° C. and 50 μL aliquots were removed at 0, 5, 10, 20, and 30 minutes and added to shallow-well 96-well plates which contained 50 μL of ice-cold ACN with internal standard to stop the reactions. The plates were stored at 4° C. for 20 minutes after which 100 μL of water was added to the wells of the plate before centrifugation to pellet precipitated proteins. Supernatants were transferred to another 96-well plate and analyzed for amounts of parent remaining by LC-MS/MS using an Applied Bio-systems API 4000 mass spectrometer.
(§3) Data analysis: The in vitro t1/2s for test compounds were calculated from the slopes of the linear regression of % parent remaining (ln) vs incubation time relationship. • in vitro t1/2=0.693/k • k=−[slope of linear regression of % parent remaining(ln) vs incubation time]
(§4) Data analysis was performed using Microsoft Excel Software.

[2] = target: T2, CYP3A4 (Homo sapiens, UniProt P08684); experiment: Metabolic stability in CYP3A4 Supersomes; assay type: in vitro ADME; details: human, recombinant CYP3A4 Supersomes, 1 μM test compound
T2 construct: purchased BD Gentest
Experimental: as §1, §2, §3, §4

[3] = active metabolite of bosentan; cited from earlier work
[4] = pH 7.4, average of Experiments 1 and 2, CYP3A4 supersomes, read-out: Ave t1/2
[5] = pH 7.4, in vitro half-life, 40 pmol/mL CYP3A4 supersomes, 2 mM NADPH, pH 7.4, 37° C., 0-30 minutes, Experiment 1, read-out: t1/2 (minutes) Experiment 1
[6] = pH 7.4, in vitro half-life, 40 pmol/mL CYP3A4 supersomes, 2 mM NADPH, pH 7.4, 37° C., 0-30 minutes, Experiment 2, read-out: t1/2 (minutes) Experiment 2

T1 sequence (P08684 whole entry): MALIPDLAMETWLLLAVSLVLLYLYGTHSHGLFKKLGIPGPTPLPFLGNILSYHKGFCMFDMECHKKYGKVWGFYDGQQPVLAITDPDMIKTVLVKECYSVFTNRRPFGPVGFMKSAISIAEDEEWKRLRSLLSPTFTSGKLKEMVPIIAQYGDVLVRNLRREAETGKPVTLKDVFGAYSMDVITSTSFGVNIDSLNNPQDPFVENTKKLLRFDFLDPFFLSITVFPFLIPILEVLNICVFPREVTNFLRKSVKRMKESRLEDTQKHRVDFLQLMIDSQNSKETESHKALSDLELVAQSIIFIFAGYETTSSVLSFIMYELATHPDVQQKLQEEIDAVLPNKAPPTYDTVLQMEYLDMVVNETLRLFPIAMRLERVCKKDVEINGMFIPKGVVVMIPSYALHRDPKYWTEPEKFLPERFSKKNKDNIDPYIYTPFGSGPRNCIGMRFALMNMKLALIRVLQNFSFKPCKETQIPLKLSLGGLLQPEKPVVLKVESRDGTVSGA
T2 sequence (P08684 whole entry): as above

| increase of in vitro t1/2 over non-deuterated bosentan [1] [%] | % Difference [1] [%] | half-life at 1 μM [2, 4] [min] | half-life at 1 μM [2, 5] [min] | half-life at 1 μM [2, 6] [min] | SMILES | share of the overall pharmaceutical properties of bosentan [3] |
| --- | --- | --- | --- | --- | --- | --- |
| ~15 | 15.1 | 41.2 | 41 | 41.3 | [2H]C([2H])([2H])Oc1ccccc1Oc1c(NS(=O)(=O)c2ccc(C(C([2H])([2H])[2H])(C([2H])([2H])[2H])C([2H])([2H])[2H])cc2)nc(-c2ncccn2)nc1OCCO [Compound 101, 4-(tert-Butyl-d9)-N-(6-(2-hydroxyethoxy)-5-(2-(methoxy-d3)-phenoxy)-2,2′-bipyrimidin-4-yl)benzenesulfonamide] | – |
| – | 6.7 | 38.2 | 35.9 | 40.5 | [2H]C([2H])([2H])C(c1ccc(S(=O)(=O)Nc2nc(-c3ncccn3)nc(OCCO)c2Oc2ccccc2OC)cc1)(C([2H])([2H])[2H])C([2H])([2H])[2H] [Compound 103, 4-(tert-Butyl-d9)-N-(6-(-2-hydroxyethoxy)-5-(2-methoxyphenoxy)-2,2′-bipyrimidin-4-yl)benzenesulfonamide] | – |
| – | – | – | – | – | COc1ccccc1Oc1c(NS(=O)(=O)c2ccc(C(C)(C)CO)cc2)nc(-c2ncccn2)nc1OCCO [hydroxybosentan] | up to 20% |
| ~54 | 54.2 | 55.2 | 53.3 | 57.2 | [2H]C([2H])(O)COc1nc(-c2ncccn2)nc(NS(=O)(=O)c2ccc(C(C([2H])([2H])[2H])(C([2H])([2H])[2H])C([2H])([2H])[2H])cc2)c1Oc1ccccc1OC([2H])([2H])[2H] [Compound 106, 4-(tert-Butyl-d9)-N-(6-(2-hydroxy-2,2-d2-ethoxy)-5-(2-(methoxy-d3)phenoxy)-2,2′-bipyrimidin-4-yl)benzenesulfonamide] | – |
| – | −11.7 | 31.6 | 30.9 | 32.4 | [2H]C([2H])(O)COc1nc(-c2ncccn2)nc(NS(=O)(=O)c2ccc(C(C)(C)C)cc2)c1Oc1ccccc1OC [Compound 104, 4-tert-Butyl-N-(6-(2-hydroxy-2,2-d2-ethoxy)-5-(2-methoxyphenoxy)-2,2′-bipyrimidin-4-yl)benzenesulfonamide] | – |
| ~29 | 29.1 | 46.2 | 45.7 | 46.8 | [2H]C([2H])([2H])Oc1ccccc1Oc1c(NS(=O)(=O)c2ccc(C(C)(C)C)cc2)nc(-c2ncccn2)nc1OCCO [Compound 102, 4-tert-Butyl-N-(6-(2-hydroxyethoxy)-5-(2-(methoxy-d3)-phenoxy)-2,2′-bipyrimidin-4-yl)benzenesulfonamide] | – |

| SMILES | increase of in vitro t1/2 over non-deuterated bosentan [1] [%] | % Difference [1] [%] | half-life at 1 μM [2, 4] [min] | half-life at 1 μM [2, 5] [min] | half-life at 1 μM [2, 6] [min] | share of the overall pharmaceutical properties of bosentan [3] |
| --- | --- | --- | --- | --- | --- | --- |
| COc1ccccc1Oc1c(NS(=O)(=O)c2ccc(C(C)(C)C)cc2)nc(-c2ncccn2)nc1OCCO [Bosentan, N[6-(2-hydroxyethoxy)-5-(2-methoxyphenoxy)-2-pyrimidin-2-yl-pyrimidin-4-yl]-4-tert-butyl-benzenesulfonamide, reference compound] | – | – | 35.8 | 34.3 | 37.2 | – |
